Results: patent US11478479B2, “Dosing with an azolopyrimidine compound” (ARCUS BIOSCIENCES, INC., priority 2018, dated 2022)

How the values were obtained:
[1] = target: T1, A2aR (Homo sapiens, UniProt P29274); assay: pCREB (marker for A2R inhibition) by flow cytometry in blood CD8+ T cells stimulated ex vivo with 5 μM NECA
T1 construct: all subjects responded to 5 μM NECA by increasing the levels of pCREB in their blood CD8+ T cells; endogenous in cells; host or cells: blood CD8+ T cells of trial subjects (ex vivo)
Source text: The assessment of pCREB (a marker for A2R inhibition) by flow cytometry will be conducted during the study.

[2] = Safety and tolerability in healthy volunteers; assay type: in vivo, human; settings: doses of up to 150 mg
Source text: Safety and tolerability assessments will consist of adverse events (AEs), clinical laboratory, vital signs, 12-lead ECG, telemetry, physical examination, Bond and Lader Visual Analog Scale (VAS) of Mood and Alertness, and Digit Symbol Substitution Test (DSST). Assessments will be performed in accordance with the schedules of assessments.

[3] = Single ascending dose (SAD) pharmacokinetics, Compound I in plasma; assay type: in vivo, human
Source text: The SAD part consists of 5 groups of 8 healthy young male and female participants, gender balanced to the extent possible, receiving a single oral dose in Groups 1 to 4 or 2 doses in Group 5 of Compound I or placebo (randomized 3:1, active vs placebo, respectively). All participants in the SAD portion of the study must be fasting prior to receiving Compound I. All groups will be evaluated based on pharmacokinetic (PK), safety and tolerability prior to escalation to the next highest group or starting the MAD portion of the study.
For Groups 1 to 4, the study drug will be administered with the participant in the upright position. Study drug will be administered to participants between 08:00 and 9:00 hours in the morning. Before the morning dose, participants will be fasted overnight for at least 10 hours following a light supper on the evening before. Within a period, dosing should be at the same time each day 15 minutes. The study drug will be swallowed together with 240 mL tap water. The study drug should not be chewed. Fasting will continue for a period of 4 hours after drug administration. During fasting, no fluids are allowed except water; however, water is not allowed from 2 hours pre-dose until 1 hour post-dose. When not fasting, non-caffeinated fluids are allowed ad libitum. […]

T1 sequence (P29274 whole entry): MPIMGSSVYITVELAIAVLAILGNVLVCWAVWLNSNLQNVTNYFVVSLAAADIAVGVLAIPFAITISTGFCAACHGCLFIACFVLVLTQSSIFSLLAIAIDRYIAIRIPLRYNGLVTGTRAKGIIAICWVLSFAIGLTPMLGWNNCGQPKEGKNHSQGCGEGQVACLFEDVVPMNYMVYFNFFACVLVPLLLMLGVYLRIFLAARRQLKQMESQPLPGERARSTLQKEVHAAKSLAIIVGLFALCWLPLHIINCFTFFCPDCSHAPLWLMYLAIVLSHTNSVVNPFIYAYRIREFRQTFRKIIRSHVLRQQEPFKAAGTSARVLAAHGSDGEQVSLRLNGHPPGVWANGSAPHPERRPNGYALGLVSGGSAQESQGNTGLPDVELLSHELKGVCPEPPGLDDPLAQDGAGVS

inhibition at 75 mg ([1]; 75 mg once daily, in the presence of 5 μM NECA, projected from single-dose PK profiles, FIG. 2, read-out: expected inhibition of A2R at steady-state plasma levels): 90%
inhibition of NECA-mediated activation of A2aR ([1]; 150 mg, 24 hours after dosing, 5 μM NECA): approximately 90%
pCREB response relative to the response seen pre-dose ([1]; 150 mg, 24 hours after dosing, blood CD8+ T cells, 5 μM NECA, FIG. 3): approximately 10%
pCREB activation signal in response to NECA ([1]; 150 mg, two hours after dosing, blood CD8+ T cells, 5 μM NECA, FIG. 3): no detectable increase in pCREB levels
half-life ([3]; both sexes, human, plasma, healthy volunteers, following a single oral dose): ~20 h
plasma levels of Compound I with increased doses ([3]; healthy volunteers, 10, 25, 75 and 150 mg, FIG. 1): dose proportional increases
SMILES: Cc1c(C#N)cccc1-c1cc(-c2cn(Cc3cccc(C(C)(C)O)n3)nn2)nc(N)n1 [Compound I, 3-(2-amino-6-(1-((6-(2-hydroxypropan-2-yl)pyridin-2-yl)methyl)-1H-1,2,3-triazol-4-yl)pyrimidin-4-yl)-2-methylbenzonitrile]
safety issues [2]: no safety issues have been identified
